Patent publication US9708359B2, “Pyrrolopyrimidine nucleosides and analogs thereof” (Chimerix, Inc., priority 2015, dated 2017)
Several values for one entry are separate records, joined by “and”; a condition that tells them apart may be missing. Equal entries are not always repeated.

system: RAW cells; test: Conversion of Compound 1 to Triphosphate in RAW Cells; conditions: RAW cells incubated with 0.5 μM Compound 1 for 48 hours

Structure (SMILES) | Concentration (ng/1 × 10^6 cells) | Concentration (pmol/1 × 10^6 cells)
Cc1nc(N)c2c(C(N)=O)cn([C@@H]3O[C@H](COP(=O)(O)OP(=O)(O)OP(=O)(O)O)[C@@H](O)[C@H]3O)c2n1 [Compound 1-TP] | 3.74 | 6.37

same assay, conditions: RAW cells incubated with 1 μM Compound 1 for 48 hours

Structure (SMILES) | Concentration (ng/1 × 10^6 cells) | Concentration (pmol/1 × 10^6 cells)
Cc1nc(N)c2c(C(N)=O)cn([C@@H]3O[C@H](COP(=O)(O)OP(=O)(O)OP(=O)(O)O)[C@@H](O)[C@H]3O)c2n1 [Compound 1-TP] | 5.13 | 8.74

same assay, conditions: RAW cells incubated with 5 μM Compound 1 for 48 hours

Structure (SMILES) | Concentration (ng/1 × 10^6 cells) | Concentration (pmol/1 × 10^6 cells)
Cc1nc(N)c2c(C(N)=O)cn([C@@H]3O[C@H](COP(=O)(O)OP(=O)(O)OP(=O)(O)O)[C@@H](O)[C@H]3O)c2n1 [Compound 1-TP] | 26.77 | 45.61

same assay, conditions: RAW cells incubated with 10 μM Compound 1 for 48 hours

Structure (SMILES) | Concentration (ng/1 × 10^6 cells) | Concentration (pmol/1 × 10^6 cells)
Cc1nc(N)c2c(C(N)=O)cn([C@@H]3O[C@H](COP(=O)(O)OP(=O)(O)OP(=O)(O)O)[C@@H](O)[C@H]3O)c2n1 [Compound 1-TP] | 41.78 | 71.18

same assay, conditions: ratio by ng; 0.5 μM Compound 1, 48 hours

Structure (SMILES) | (Compound 1-TP)/(Compound 1) (ng)
Cc1nc(N)c2c(C(N)=O)cn([C@@H]3O[C@H](COP(=O)(O)OP(=O)(O)OP(=O)(O)O)[C@@H](O)[C@H]3O)c2n1 [Compound 1-TP] | 21.8

same assay, conditions: ratio by ng; 1 μM Compound 1, 48 hours

Structure (SMILES) | (Compound 1-TP)/(Compound 1) (ng)
Cc1nc(N)c2c(C(N)=O)cn([C@@H]3O[C@H](COP(=O)(O)OP(=O)(O)OP(=O)(O)O)[C@@H](O)[C@H]3O)c2n1 [Compound 1-TP] | 39.4

same assay, conditions: ratio by ng; 5 μM Compound 1, 48 hours

Structure (SMILES) | (Compound 1-TP)/(Compound 1) (ng)
Cc1nc(N)c2c(C(N)=O)cn([C@@H]3O[C@H](COP(=O)(O)OP(=O)(O)OP(=O)(O)O)[C@@H](O)[C@H]3O)c2n1 [Compound 1-TP] | 41.3

same assay, conditions: ratio by ng; 10 μM Compound 1, 48 hours

Structure (SMILES) | (Compound 1-TP)/(Compound 1) (ng)
Cc1nc(N)c2c(C(N)=O)cn([C@@H]3O[C@H](COP(=O)(O)OP(=O)(O)OP(=O)(O)O)[C@@H](O)[C@H]3O)c2n1 [Compound 1-TP] | 41.1

same assay, conditions: ratio by pmol; 0.5 μM Compound 1, 48 hours

Structure (SMILES) | (Compound 1-TP)/(Compound 1) (pmol)
Cc1nc(N)c2c(C(N)=O)cn([C@@H]3O[C@H](COP(=O)(O)OP(=O)(O)OP(=O)(O)O)[C@@H](O)[C@H]3O)c2n1 [Compound 1-TP] | 12.0

same assay, conditions: ratio by pmol; 1 μM Compound 1, 48 hours

Structure (SMILES) | (Compound 1-TP)/(Compound 1) (pmol)
Cc1nc(N)c2c(C(N)=O)cn([C@@H]3O[C@H](COP(=O)(O)OP(=O)(O)OP(=O)(O)O)[C@@H](O)[C@H]3O)c2n1 [Compound 1-TP] | 21.7

same assay, conditions: ratio by pmol; 5 μM Compound 1, 48 hours

Structure (SMILES) | (Compound 1-TP)/(Compound 1) (pmol)
Cc1nc(N)c2c(C(N)=O)cn([C@@H]3O[C@H](COP(=O)(O)OP(=O)(O)OP(=O)(O)O)[C@@H](O)[C@H]3O)c2n1 [Compound 1-TP] | 22.7

same assay, conditions: ratio by pmol; 10 μM Compound 1, 48 hours

Structure (SMILES) | (Compound 1-TP)/(Compound 1) (pmol)
Cc1nc(N)c2c(C(N)=O)cn([C@@H]3O[C@H](COP(=O)(O)OP(=O)(O)OP(=O)(O)O)[C@@H](O)[C@H]3O)c2n1 [Compound 1-TP] | 22.6

system: mouse norovirus; test: Mouse Norovirus (MNV) assay in RAW cells; conditions: murine norovirus, Table 7

Structure (SMILES) | EC50
Cc1nc(N)c2c(C(N)=O)cn([C@@H]3O[C@H](COP(=O)(N[C@@H](C)C(=O)OCc4ccccc4)Oc4ccccc4)[C@@H](O)[C@H]3O)c2n1 (stereo partly shown) [Compound 107] | 18.1 µM
COC(=O)[C@H](C)NP(=O)(OC[C@H]1O[C@@H](n2cc(C(N)=O)c3c(N)nc(C)nc32)[C@H](O)[C@@H]1O)Oc1ccccc1 (stereo partly shown) [Compound 111] | 21 µM
Cc1nc(N)c2c(C(N)=O)cn([C@@H]3O[C@H](COP(=O)(N[C@@H](C)C(=O)OCc4ccccc4)N[C@H](C)C(=O)OCc4ccccc4)[C@@H](O)[C@H]3O)c2n1 [Compound 126] | 33.6 µM and 38.9 µM
Cc1nc(N)c2c(C(N)=O)cn([C@@H]3O[C@H](COP(=O)(N[C@@H](C)C(=O)OC(C)C)Oc4ccccc4)[C@@H](OC(=O)C(C)C)[C@H]3OC(=O)C(C)C)c2n1 (stereo partly shown) [Compound 133] | 25.7 µM
Cc1nc(N)c2c(C(N)=O)cn([C@@H]3O[C@H](COP(=O)(N[C@@H](C)C(=O)OC(C)C)OCc4ccccc4C)[C@@H](O)[C@H]3O)c2n1 (stereo partly shown) [Compound 137] | 20 µM
CCCCCCCCCCCCCCCCOCCCOC(=O)[C@H](C)NP(=O)(OC[C@H]1O[C@@H](n2cc(C(N)=O)c3c(N)nc(C)nc32)[C@H](O)[C@@H]1O)Oc1ccccc1 (stereo partly shown) [Compound 139] | 2.3 µM
Cc1nc(N)c2c(C(N)=O)cn([C@@H]3O[C@H](COP(=O)(O)N[C@@H](C)C(=O)OC(C)C)[C@@H](O)[C@H]3O)c2n1 [Compound 141] | 3.2 µM
CCCCCCCCCCCCCCCCOCCCOC(=O)[C@H](C)NP(=O)(O)OC[C@H]1O[C@@H](n2cc(C(N)=O)c3c(N)nc(C)nc32)[C@H](O)[C@@H]1O [Compound 143] | 26.3 µM
CCCCCCCCC(=O)Oc1ccc(COP(=O)(OCc2ccc(OC(=O)CCCCCCCC)cc2)OP(=O)(O)OC[C@H]2O[C@@H](n3cc(C(N)=O)c4c(N)nc(C)nc43)[C@H](O)[C@@H]2O)cc1 [Compound 145] | 7.4 µM

same assay, conditions: murine norovirus, Table 8; N/A = assayed but no EC50 value could be measured

Structure (SMILES) | EC50 [µM]
Cc1nc(N)c2c(C(=N)NO)cn([C@@H]3O[C@H](CO)[C@@H](O)[C@H]3O)c2n1 [Compound 85] | > 100
COC(=O)C(OC[C@H]1O[C@@H](n2cc(C#N)c3c(N)nc(C)nc32)[C@H](O)[C@@H]1O)P(=O)(OC)OC (stereo partly shown) [Compound 86] | > 100
Cc1nc(N)c2c(C(N)=O)cn([C@@H]3O[C@H](CO)[C@@H](O)[C@@]3(C)O)c2n1 [Compound 87] | > 100
N#Cc1nc(N)c2c(C(N)=O)cn([C@@H]3O[C@H](CO)[C@@H](O)[C@H]3O)c2n1 [Compound 89] | > 100
CC#Cc1nc(N)c2c(C(N)=O)cn([C@@H]3O[C@H](CO)[C@@H](O)[C@H]3O)c2n1 [Compound 90] | > 100
Cc1nc(N)c2c(C(=N)N)cn([C@@H]3O[C@H](CO)[C@@H](O)[C@H]3O)c2n1 [Compound 91] | > 100
Cc1nc(N)c2c(C(N)=O)cn([C@H]3C[C@H](O)[C@@H](CO)O3)c2n1 [Compound 92] | > 100
Cc1nc(N)c2c(C(N)=O)cn([C@@H]3O[C@H](COC(=O)[C@@H](N)C(C)C)[C@@H](OC(=O)C(N)C(C)C)[C@@]3(C)O)c2n1 (stereo partly shown) [Compound 93] | > 100
Cc1nc(NO)c2c(C(N)=O)cn([C@@H]3O[C@H](CO)[C@@H](O)[C@H]3O)c2n1 [Compound 94] | > 100
Cc1nc(NN)c2c(C(N)=O)cn([C@@H]3O[C@H](CO)[C@@H](O)[C@H]3O)c2n1 [Compound 95] | > 100
Cc1nc(N)c2c(C(N)=O)cn([C@@H]3O[C@H](C)[C@@H](O)[C@H]3O)c2n1 [Compound 97] | > 100
Cc1nc(Cl)c2ccn(C[C@H](O)CO)c2n1 [Compound 98] | > 100
NC(=O)c1cn([C@@H]2O[C@H](CO)[C@@H](O)[C@H]2O)c2nc(CO)nc(N)c12 [Compound 99] | > 100
COC(=N)c1cn([C@@H]2O[C@@](CO)(N=[N+]=[N-])[C@@H](O)[C@H]2O)c2nc(C)nc(N)c12 [Compound 100] | > 100
Cc1nc(N)c2c(C(N)=O)cn([C@@H]3O[C@H](CO)[C@@H](F)[C@H]3O)c2n1 [Compound 101] | > 100
Cc1nc(N)c2c(C(N)=O)cn([C@@H]3O[C@H](C(C)O)[C@@H](O)[C@H]3O)c2n1 (stereo partly shown) [Compound 102] | > 100
COC(=N)c1cn([C@@H]2O[C@H](COS(=O)(=O)CCCCl)[C@H]3OC(C)(C)O[C@H]32)c2nc(C)nc(N)c12 [Compound 103] | > 100
COC(=N)c1cn([C@@H]2O[C@H](CN=[N+]=[N-])[C@@H](O)[C@H]2O)c2nc(C)nc(N)c12 [Compound 104] | > 100
Cc1nc(N)c2c(C(N)=O)cn([C@@H]3O[C@@](CO)(N=[N+]=[N-])[C@@H](O)[C@H]3O)c2n1 [Compound 105] | > 100
Cc1nc(N)c2c(C#N)cn([C@@H]3O[C@@](CO)(N=[N+]=[N-])[C@@H](O)[C@H]3O)c2n1 [Compound 106] | > 100
Cc1nc(N)c2c(C(N)=O)cn([C@@H]3O[C@H](CN)[C@@H](O)[C@H]3O)c2n1 [Compound 108] | > 100
Cc1nc(N)c2c(C(N)=O)cn([C@@H]3O[C@@H](CO)[C@@H](O)[C@H]3O)c2n1 [Compound 109] | > 100
Cc1nc(N)c2c(C(N)=O)cn([C@H]3CCCO3)c2n1 [Compound 110] | > 100

Structure (SMILES) | EC50 [µM]
Cc1nc(N)c2c(C(N)=O)cn([C@@H]3O[C@H](CO)[C@@H](N=[N+]=[N-])[C@H]3O)c2n1 [Compound 112] | > 100
Cc1nc(N)c2c(C(N)=O)cn([C@@H]3O[C@H](CO)[C@@H](N)[C@H]3O)c2n1 [Compound 113] | > 100
Cc1nc(N)c2c(C#N)cn([C@H]3C=C[C@@H](O)O3)c2n1 [Compound 114] | > 100
CCOP(=O)(CO[C@@H]1C=C[C@H](n2cc(C#N)c3c(Cl)nc(C)nc32)O1)OCC [Compound 116] | > 100
Cc1nc(Cl)c2c(C#N)cn([C@@H]3O[C@H](O)[C@@H](O)[C@H]3O)c2n1 [Compound 117] | > 100
Cc1nc(N)c2c(C(N)=O)cn([C@@H]3O[C@H](O)[C@@H](O)[C@H]3O)c2n1 [Compound 118] | > 100
CCOP(=O)(CC[C@H]1O[C@@H](n2cc(C(N)=O)c3c(N)nc(C)nc32)[C@H](O)[C@@H]1O)OCC [Compound 119] | > 100
Cc1nc(Cl)c2ccn([C@H]3CC=CO3)c2n1 [Compound 120] | > 100
CCOP(=O)(CCO[C@H]1O[C@@H](n2cc(C#N)c3c(Cl)nc(C)nc32)[C@H](O)[C@@H]1O)OCC [Compound 123] | > 100
Cc1nc(N)c2c(C(N)=O)cn([C@H]3C=C[C@@H](O)O3)c2n1 [Compound 124] | > 100
Cc1nc(N)c2c(C(N)=O)cn([C@@H]3O[C@H](OCCP(=O)(O)O)[C@@H](O)[C@H]3O)c2n1 [Compound 125] | > 100
Cc1nc(/N=C/N(C)C)c2c(C(N)=O)cn([C@@H]3O[C@H](CO)[C@@H](O)[C@H]3O)c2n1 [Compound 127] | 5.5
CC(=O)Nc1nc(C)nc2c1c(C(N)=O)cn2[C@@H]1O[C@H](COC(C)=O)[C@@H](OC(C)=O)[C@H]1OC(C)=O [Compound 128] | > 100
CC(=O)OC[C@H]1O[C@@H](n2cc(C(N)=O)c3c(N)nc(C)nc32)[C@H](OC(C)=O)[C@@H]1OC(C)=O [Compound 129] | 88.7
CCCCCCCCCCCCCCCCOCCCC(=O)Nc1nc(C)nc2c1c(C(N)=O)cn2[C@@H]1O[C@H](CO)[C@@H](O)[C@H]1O [Compound 130] | 42.7
CCCC(CCC)C(=O)Nc1nc(C)nc2c1c(C(N)=O)cn2[C@@H]1O[C@H](CO)[C@@H](O)[C@H]1O [Compound 131] | > 100
Cc1nc(N)c2c(C(N)=O)cn([C@@H]3O[C@H](COP(=O)(N[C@@H](C)C(=O)OC(C)C)Oc4ccccc4)[C@@H](O)[C@H]3O)c2n1 (stereo partly shown) [Compound 132] | > 100
Cc1nc(N)c2c(C(N)=O)cn([C@@H]3O[C@H](COP(=O)(N[C@@H](C)C(=O)OC(C)C)Oc4ccccc4)[C@H]4OC(=O)O[C@H]43)c2n1 (stereo partly shown) [Compound 134] | 68.4
Cc1nc(N)c2c(C(N)=O)cn([C@@H]3O[C@H](COP(=O)(NCc4ccccc4)NCc4ccccc4)[C@@H](O)[C@H]3O)c2n1 [Compound 136] | 64.5
CCCCCCCCCCCCCCCCOCCCOP(=O)(N[C@@H](C)C(=O)OC(C)C)OC[C@H]1O[C@@H](n2cc(C(N)=O)c3c(N)nc(C)nc32)[C@H](O)[C@@H]1O (stereo partly shown) [Compound 140] | > 100
CCCCCCCCCCCCCCCOCCCOC(=O)C(C)NP(=O)(OCc1ccccc1C)OC[C@H]1O[C@@H](n2cc(C(N)=O)c3c(N)nc(C)nc32)[C@H](O)[C@@H]1O (stereo partly shown) [Compound 142] | > 100
C=Cc1c(C(N)=O)c2c(N)nc(C)nc2n1[C@@H]1O[C@H](CO)[C@@H](O)[C@H]1O [Compound 144] | > 100
